# From patent US20110288101A1, “SURGICAL CO[…]-RECEPTOR AGONISTS” (ALCON RESEARCH, LTD., priority 2010, published 2011)
# Test system: rabbit corneal endothelial cells
# Experiment: MTS cell viability assay, protection against hydrogen peroxide oxidative stress
# Type: cell-based
# Settings: rabbit corneal endothelial cells in serum-free medium; 70 μM H2O2; 24 hours; 1 to 300 μM (+)-pentazocine; p<0.05 vs H2O2 control; FIG. 1
# Protocol: Studies were performed to determine whether (+)-pentazocine can protect corneal endothelial cells. Hydrogen peroxide was employed to produce oxidative stress to rabbit corneal endothelial cells in vitro.
# Briefly, rabbit corneal endothelial cells maintained in serum-free medium were treated with the sigma-1 receptor agonist (+)-pentazocine and 70 μM H2O2 for 24 hours. At the end point, a cell viability assay (MTS assay) is performed. The MTS assay is a laboratory test and standard colorimetric assay for measuring the activity of enzymes that reduce MTS+PMS to formazan, producing a purple color. MTS (3-(4,5-dimethylthiazol-2-yl)-5-(3-carboxymethoxyphenyl)-2-(4-sulfophenyl)-2H-tetrazolium), in the presence of phenazine methosulfate (PMS), produces a water-soluble formazan product that has an absorbance maximum at 490-500 nm in phosphate-buffered saline. These reduction reactions take place only when reductase enzymes are active, and the production of formazan product is therefore used as a measure of cell viability.
# Lower absorbance numbers correlate to reduced cell viability.
compound,measurement,value
"CC(C)=CCN1CCC2(C)c3cc(O)ccc3CC1C2C (single isomer, unassigned; (+)) [(+)-pentazocine]",protection of cell viability (MTS absorbance) against damage induced by hydrogen peroxide,dose-dependent protection
